Measurements taken from PubChem BioAssay AID2060490 (Molecular Pharmacology Branch, DTP, NCI, 2025).

System: 885512-296-R-J2-PDC complex spheroid viability
Assay: Anticancer human tumor 885512-296-R-J2-PDC patient-derived breast carcinoma cell line growth inhibition [GQUAD]
Settings: for IC50: curve of first compound; for viability, T/C: stronger effect = lower value
How it was run: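 Tumor cells were grown as complex spheroids with HUVEC endothelial cells and mesenchymal stem cells as stroma. G-quadruplex stabilizers were combined with targeted agents over half-log dilutions from near the clinical Cmax, or from 10 microM.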

[1] = second compound 0.0316 µM, first compound 0.0316 µM
[2] = second compound 0.0316 µM, first compound 0.1 µM
[3] = second compound 0.0316 µM, first compound 0.316 µM
[4] = second compound 0.0316 µM, first compound 1 µM
[5] = second compound 0.0316 µM, first compound 3.16 µM
[6] = second compound 0.0316 µM, first compound 10 µM
[7] = second compound 0.1 µM, first compound 0.0316 µM
[8] = second compound 0.1 µM, first compound 0.1 µM
[9] = second compound 0.1 µM, first compound 0.316 µM
[10] = second compound 0.1 µM, first compound 1 µM
[11] = second compound 0.1 µM, first compound 3.16 µM
[12] = second compound 0.1 µM, first compound 10 µM
[13] = second compound 0.316 µM, first compound 0.0316 µM
[14] = second compound 0.316 µM, first compound 0.1 µM
[15] = second compound 0.316 µM, first compound 0.316 µM
[16] = second compound 0.316 µM, first compound 1 µM
[17] = second compound 0.316 µM, first compound 3.16 µM
[18] = second compound 0.316 µM, first compound 10 µM
[19] = second compound 1 µM, first compound 0.0316 µM
[20] = second compound 1 µM, first compound 0.1 µM
[21] = second compound 1 µM, first compound 0.316 µM
[22] = second compound 1 µM, first compound 1 µM
[23] = second compound 1 µM, first compound 3.16 µM
[24] = second compound 1 µM, first compound 10 µM
[25] = second compound 3.16 µM, first compound 0.0316 µM
[26] = second compound 3.16 µM, first compound 0.1 µM
[27] = second compound 3.16 µM, first compound 0.316 µM
[28] = second compound 3.16 µM, first compound 1 µM
[29] = second compound 3.16 µM, first compound 3.16 µM
[30] = second compound 3.16 µM, first compound 10 µM
[31] = second compound 10 µM, first compound 0.0316 µM
[32] = second compound 10 µM, first compound 0.1 µM
[33] = second compound 10 µM, first compound 0.316 µM
[34] = second compound 10 µM, first compound 1 µM
[35] = second compound 10 µM, first compound 3.16 µM
[36] = second compound 10 µM, first compound 10 µM
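Note: spheroids exposed to the compounds for one week.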
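Throughout, for viability, T/C: percent of tumor spheroid viability relative to DMSO vehicle control wells.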

Question: For `CC(=O)O[C@H]1C(=O)[C@@]2(C)[C@H]([C@H](OC(=O)c3ccccc3)[C@]3(O)C[C@H](OC(=O)[C@H](O)[C@@H](NC(=O)c4ccccc4)c4ccccc4)C(C)=C1C3(C)C)[C@]1(OC(C)=O)CO[C@@H]1C[C@@H]2O` + CN(C)c1ccc(Nc2c3ccc(NC(=O)CCN4CCCC4)cc3nc3cc(NC(=O)CCN4CCCC4)ccc23)cc1, which IC50 (second compound 0.0316 µM) is on record?
Answer: < 31.6 nM

Question: What about the IC50 (second compound 0.1 µM) of the same molecule?
Answer: < 31.6 nM

Question: And the IC50 (second compound 0.316 µM)?
Answer: < 31.6 nM

Question: What about the IC50 (second compound 1 µM) of the same molecule?
Answer: < 31.6 nM

Question: What about the IC50 (second compound 3.16 µM) of the same molecule?
Answer: < 31.6 nM

Question: What about the IC50 (second compound 10 µM) of the same molecule?
Answer: < 31.6 nM

Question: And the viability, T/C [1]?
Answer: 7.7%

Question: And the viability, T/C [2]?
Answer: 3.78%

Question: What about the viability, T/C [3] of the same molecule?
Answer: 3.71%

Question: And the viability, T/C [4]?
Answer: 2.86%

Question: What about the viability, T/C [5] of the same molecule?
Answer: 3.18%

Question: What about the viability, T/C [6] of the same molecule?
Answer: 3.65%

Question: And the viability, T/C [7]?
Answer: 6.67%

Question: And the viability, T/C [8]?
Answer: 3.1%

Question: What about the viability, T/C [9] of the same molecule?
Answer: 3.16%

Question: What about the viability, T/C [10] of the same molecule?
Answer: 4.15%

Question: And the viability, T/C [11]?
Answer: 3.73%

Question: And the viability, T/C [12]?
Answer: 3.82%

Question: What about the viability, T/C [13] of the same molecule?
Answer: 8.31%

Question: What about the viability, T/C [14] of the same molecule?
Answer: 4.86%

Question: And the viability, T/C [15]?
Answer: 3.98%

Question: And the viability, T/C [16]?
Answer: 3.68%

Question: And the viability, T/C [17]?
Answer: 3.77%

Question: And the viability, T/C [18]?
Answer: 3.72%

Question: What about the viability, T/C [19] of the same molecule?
Answer: 10.4%

Question: What about the viability, T/C [20] of the same molecule?
Answer: 4.09%

Question: And the viability, T/C [21]?
Answer: 3.56%

Question: What about the viability, T/C [22] of the same molecule?
Answer: 3.3%

Question: And the viability, T/C [23]?
Answer: 3.31%

Question: What about the viability, T/C [24] of the same molecule?
Answer: 3.95%

Question: And the viability, T/C [25]?
Answer: 5.71%

Question: What about the viability, T/C [26] of the same molecule?
Answer: 3.67%

Question: And the viability, T/C [27]?
Answer: 3.71%

Question: What about the viability, T/C [28] of the same molecule?
Answer: 3.88%

Question: And the viability, T/C [29]?
Answer: 5.32%

Question: What about the viability, T/C [30] of the same molecule?
Answer: 5.08%

Question: What about the viability, T/C [31] of the same molecule?
Answer: 6.02%

Question: And the viability, T/C [32]?
Answer: 4.19%

Question: What about the viability, T/C [33] of the same molecule?
Answer: 2.67%

Question: What about the viability, T/C [34] of the same molecule?
Answer: 4.93%

Question: What about the viability, T/C [35] of the same molecule?
Answer: 3.01%

Question: What about the viability, T/C [36] of the same molecule?
Answer: 3.27%

Question: With `CC1COCCN1c1cc(C2(O)CC3CCC(C2)O3)c2cnn(-c3ccn[nH]3)c2n1` (stereo unspecified) + Cc1cnc(CNC(=O)c2c(=O)c3ccc(N4CCCN(C)CC4)nc3n3c2sc2ccccc23)cn1 as the molecule, how does the IC50 (second compound 0.0316 µM) read?
Answer: < 31.6 nM

Question: And the IC50 (second compound 0.1 µM)?
Answer: < 31.6 nM

Question: And the IC50 (second compound 0.316 µM)?
Answer: < 31.6 nM

Question: What about the IC50 (second compound 1 µM) of the same molecule?
Answer: < 31.6 nM

Question: And the IC50 (second compound 3.16 µM)?
Answer: < 31.6 nM

Question: And the IC50 (second compound 10 µM)?
Answer: < 31.6 nM

Question: What about the viability, T/C [1] of the same molecule?
Answer: 5.92%

Question: What about the viability, T/C [2] of the same molecule?
Answer: 3.36%

Question: And the viability, T/C [3]?
Answer: 3.06%

Question: What about the viability, T/C [4] of the same molecule?
Answer: 4.49%

Question: What about the viability, T/C [5] of the same molecule?
Answer: 5.92%

Question: And the viability, T/C [6]?
Answer: 7.8%

Question: And the viability, T/C [7]?
Answer: 5.95%

Question: And the viability, T/C [8]?
Answer: 3.36%

Question: What about the viability, T/C [9] of the same molecule?
Answer: 3.12%

Question: And the viability, T/C [10]?
Answer: 4.44%

Question: And the viability, T/C [11]?
Answer: 6.08%

Question: What about the viability, T/C [12] of the same molecule?
Answer: 7%

Question: What about the viability, T/C [13] of the same molecule?
Answer: 4.59%

Question: What about the viability, T/C [14] of the same molecule?
Answer: 4.72%

Question: What about the viability, T/C [15] of the same molecule?
Answer: 4.92%

Question: What about the viability, T/C [16] of the same molecule?
Answer: 5.25%

Question: And the viability, T/C [17]?
Answer: 7.22%

Question: What about the viability, T/C [18] of the same molecule?
Answer: 7.55%

Question: What about the viability, T/C [19] of the same molecule?
Answer: 6.13%

Question: What about the viability, T/C [20] of the same molecule?
Answer: 4.5%

Question: What about the viability, T/C [21] of the same molecule?
Answer: 5.8%

Question: What about the viability, T/C [22] of the same molecule?
Answer: 6.61%

Question: What about the viability, T/C [23] of the same molecule?
Answer: 7.78%

Question: And the viability, T/C [24]?
Answer: 6.44%

Question: And the viability, T/C [25]?
Answer: 2.58%

Question: What about the viability, T/C [26] of the same molecule?
Answer: 3.35%

Question: And the viability, T/C [27]?
Answer: 4.73%

Question: What about the viability, T/C [28] of the same molecule?
Answer: 4.41%

Question: What about the viability, T/C [29] of the same molecule?
Answer: 2.5%

Question: And the viability, T/C [30]?
Answer: 1.93%

Question: And the viability, T/C [31]?
Answer: 0.03%

Question: And the viability, T/C [32]?
Answer: 0.09%

Question: What about the viability, T/C [33] of the same molecule?
Answer: 0.14%

Question: And the viability, T/C [34]?
Answer: 0.07%

Question: And the viability, T/C [35]?
Answer: 0.12%

Question: And the viability, T/C [36]?
Answer: 0.12%

Question: How did the IC50 (second compound 0.0316 µM) turn out when `Cc1[nH]c2ccccc2c1CCNCc1ccc(/C=C/C(=O)NO)cc1` + Cc1cnc(CNC(=O)c2c(=O)c3ccc(N4CCCN(C)CC4)nc3n3c2sc2ccccc23)cn1 was run?
Answer: 15 nM

Question: What about the IC50 (second compound 0.1 µM) of the same molecule?
Answer: < 0.999 nM

Question: And the IC50 (second compound 0.316 µM)?
Answer: < 0.999 nM

Question: What about the IC50 (second compound 1 µM) of the same molecule?
Answer: < 0.999 nM

Question: What about the IC50 (second compound 3.16 µM) of the same molecule?
Answer: < 0.999 nM

Question: What about the IC50 (second compound 10 µM) of the same molecule?
Answer: < 0.999 nM

Question: And the viability, T/C (second compound 0.0316 µM, first compound 0.000999 µM)?
Answer: 83.8%

Question: What about the viability, T/C (second compound 0.0316 µM, first compound 0.00316 µM) of the same molecule?
Answer: 80.2%

Question: And the viability, T/C (second compound 0.0316 µM, first compound 0.00999 µM)?
Answer: 52%

Question: And the viability, T/C [1]?
Answer: 34.5%

Question: What about the viability, T/C (second compound 0.0316 µM, first compound 0.0999 µM) of the same molecule?
Answer: 27.9%

Question: What about the viability, T/C [3] of the same molecule?
Answer: 5.52%

Question: What about the viability, T/C (second compound 0.1 µM, first compound 0.000999 µM) of the same molecule?
Answer: 52.9%

Question: And the viability, T/C (second compound 0.1 µM, first compound 0.00316 µM)?
Answer: 43.2%

Question: What about the viability, T/C (second compound 0.1 µM, first compound 0.00999 µM) of the same molecule?
Answer: 38.6%

Question: And the viability, T/C [7]?
Answer: 36.9%

Question: What about the viability, T/C (second compound 0.1 µM, first compound 0.0999 µM) of the same molecule?
Answer: 29.8%

Question: What about the viability, T/C [9] of the same molecule?
Answer: 6.34%

Question: What about the viability, T/C (second compound 0.316 µM, first compound 0.000999 µM) of the same molecule?
Answer: 27.3%

Question: And the viability, T/C (second compound 0.316 µM, first compound 0.00316 µM)?
Answer: 16%

Question: What about the viability, T/C (second compound 0.316 µM, first compound 0.00999 µM) of the same molecule?
Answer: 15.3%

Question: What about the viability, T/C [13] of the same molecule?
Answer: 22.8%

Question: And the viability, T/C (second compound 0.316 µM, first compound 0.0999 µM)?
Answer: 25.1%

Question: And the viability, T/C [15]?
Answer: 5.41%

Question: What about the viability, T/C (second compound 1 µM, first compound 0.000999 µM) of the same molecule?
Answer: 17.4%

Question: What about the viability, T/C (second compound 1 µM, first compound 0.00316 µM) of the same molecule?
Answer: 14.9%

Question: What about the viability, T/C (second compound 1 µM, first compound 0.00999 µM) of the same molecule?
Answer: 19.2%

Question: What about the viability, T/C [19] of the same molecule?
Answer: 15.4%

Question: What about the viability, T/C (second compound 1 µM, first compound 0.0999 µM) of the same molecule?
Answer: 13.9%

Question: And the viability, T/C [21]?
Answer: 0.1%

Question: What about the viability, T/C (second compound 3.16 µM, first compound 0.000999 µM) of the same molecule?
Answer: 19.2%

Question: And the viability, T/C (second compound 3.16 µM, first compound 0.00316 µM)?
Answer: 17.6%

Question: And the viability, T/C (second compound 3.16 µM, first compound 0.00999 µM)?
Answer: 0.21%

Question: And the viability, T/C [25]?
Answer: 0.22%

Question: What about the viability, T/C (second compound 3.16 µM, first compound 0.0999 µM) of the same molecule?
Answer: 0.15%

Question: And the viability, T/C [27]?
Answer: 0.13%

Question: And the viability, T/C (second compound 10 µM, first compound 0.000999 µM)?
Answer: 0.17%

Question: And the viability, T/C (second compound 10 µM, first compound 0.00316 µM)?
Answer: 0.17%

Question: What about the viability, T/C (second compound 10 µM, first compound 0.00999 µM) of the same molecule?
Answer: 0.24%

Question: And the viability, T/C [31]?
Answer: 0.22%

Question: What about the viability, T/C (second compound 10 µM, first compound 0.0999 µM) of the same molecule?
Answer: 0.22%

Question: And the viability, T/C [33]?
Answer: 0.23%
